One data set concerns mice. The data set can be described thus: Acute toxicity, intravenous. It is filed as in vivo. The protocol:
The acute toxicity of the sodium salt of Antibiotic SB-72310 is low, with no deaths being encountered when 500 mg/kg of the salt was administered to mice by the intravenous route.

The nature of the next data set: Solubility in solvents. The data set is classed as physicochemical.
Data set [1] is described as follows: Stability in aqueous solution. The data set is classed as physicochemical. The protocol: 12. Stability: Stable in aqueous solution in the range of pH 3 to 7 at 60° C. for 10 minute heating; unstable over pH 8.5.
10. Stability: Stable in aqueous solution in the range of pH 3 to 7 at 60° C. for 10 minute heating; unstable over pH 8.5.

Data set [2] deals with Alcaligenes faecalis IFO 13111. Kind of data set: Antimicrobial spectrum, paper disk method. The conditions noted are these: IFO13111, 25 μl of 10 mg/ml in 8 mm paper disks, Trypticasesoy-broth-agar, read-out: Inhibition diameter. It is filed as cell-based. The protocol:
(§1) The biological characteristics of SB-72310 are as follows.
(§2) Antimicrobial spectra of SB-72310(Inhibition diameter (mm)
(§3) by paper disk method) (25 μl of test solution of 10 mg/ml
(§4) is absorbed in paper disks of 8 mm diameter)
(§5) Medium = Trypticasesoy-broth-agar

The next data set relates to Bacillus cereus IFO 3466. The data set can be described thus: Antimicrobial spectrum, paper disk method. The conditions noted are these: IFO3466, 25 μl of 10 mg/ml in 8 mm paper disks, Trypticasesoy-broth-agar, read-out: Inhibition diameter. It is filed as cell-based. The protocol: as §1, §2, §3, §4, §5
Data set [3] concerns Bacillus subtilis IFO 3513. Kind of data set: Antimicrobial spectrum, paper disk method. The conditions noted are these: IFO3513, 25 μl of 10 mg/ml in 8 mm paper disks, Trypticasesoy-broth-agar, read-out: Inhibition diameter. The data set is classed as cell-based. The protocol: as §1, §2, §3, §4, §5
The test system of data set [4] is Comamonas terrigena IFD 12685. The data set can be described thus: Antimicrobial spectrum, paper disk method. The data set is classed as cell-based. The conditions noted are these: IFD12685, 25 μl of 10 mg/ml in 8 mm paper disks, Trypticasesoy-broth-agar, read-out: Inhibition diameter. The protocol: as §1, §2, §3, §4, §5
For data set [5], the system named is Escherichia coli NIHJ JC-2. Kind of data set: Antimicrobial spectrum, paper disk method. It is filed as cell-based. As to conditions: NIHJJC2, 25 μl of 10 mg/ml in 8 mm paper disks, Trypticasesoy-broth-agar, read-out: Inhibition diameter. The method, then:
as §1, §2, §3, §4, §5

The test system of data set [6] is Klebsiella pneumoniae IFO 3318. The data set can be described thus: Antimicrobial spectrum, paper disk method. It is filed as cell-based. As to conditions: IFO3318, 25 μl of 10 mg/ml in 8 mm paper disks, Trypticasesoy-broth-agar, read-out: Inhibition diameter. The method, then: as §1, §2, §3, §4, §5
Data set [7] deals with Proteus mirabilis IFO 3849. Kind of data set: Antimicrobial spectrum, paper disk method. The conditions noted are these: IFO3849, 25 μl of 10 mg/ml in 8 mm paper disks, Trypticasesoy-broth-agar, read-out: Inhibition diameter. It is filed as cell-based. The protocol: as §1, §2, §3, §4, §5
Data set [8] has as its system Proteus vulgaris IFO 3045. The data set can be described thus: Antimicrobial spectrum, paper disk method. It is filed as cell-based. The conditions noted are these: IFO3045, 25 μl of 10 mg/ml in 8 mm paper disks, Trypticasesoy-broth-agar, read-out: Inhibition diameter. The method, then:
as §1, §2, §3, §4, §5

Data set [9] concerns Pseudomonas fluorescens IFO 3081. The data set can be described thus: Antimicrobial spectrum, paper disk method. The data set is classed as cell-based. As to conditions: IFO3081, 25 μl of 10 mg/ml in 8 mm paper disks, Trypticasesoy-broth-agar, read-out: Inhibition diameter. The protocol: as §1, §2, §3, §4, §5
Data set [10] has as its system Salmonella typhimurium IFO 12529. Kind of data set: Antimicrobial spectrum, paper disk method. It is filed as cell-based. The conditions noted are these: Salmonella enterica, 25 μl of 10 mg/ml in 8 mm paper disks, Trypticasesoy-broth-agar, read-out: Inhibition diameter. The protocol:
as §1, §2, §3, §4, §5

The next data set deals with Sarcina lutea IFO 3232. Kind of data set: Antimicrobial spectrum, paper disk method. The data set is classed as cell-based. As to conditions: Micrococcus luteus, IFO3232, 25 μl of 10 mg/ml in 8 mm paper disks, Trypticasesoy-broth-agar, read-out: Inhibition diameter. The protocol: as §1, §2, §3, §4, §5
Data set [11] relates to Serratia marcescens IFO 12648. Kind of data set: Antimicrobial spectrum, paper disk method. The data set is classed as cell-based. The conditions noted are these: IFO12648, 25 μl of 10 mg/ml in 8 mm paper disks, Trypticasesoy-broth-agar, read-out: Inhibition diameter. The method, then:
as §1, §2, §3, §4, §5

For data set [12], the system named is Staphylococcus aureus FDA 209P. The data set can be described thus: Antimicrobial spectrum, paper disk method. As to conditions: FDA209P, 25 μl of 10 mg/ml in 8 mm paper disks, Trypticasesoy-broth-agar, read-out: Inhibition diameter. It is filed as cell-based. The method, then: as §1, §2, §3, §4, §5
A further data set relates to gram-positive bacteria. The data set can be described thus: Antibacterial activity against gram-positive bacteria. The data set is classed as cell-based. As to conditions: paper disk method, Table 2. The protocol: as §1, §2, §3, §4, §5
The subject of the next data set is gram-negative bacteria. The data set can be described thus: Antibacterial activity against gram-negative bacteria. It is filed as cell-based. As to conditions: paper disk method, Table 2. The method, then:
as §1, §2, §3, §4, §5

A short description of data set [13]: Basicity, neutrality or acidity. It is filed as physicochemical.
Where [14] appears, read: aqueous solution, pH 3 to 7, 60° C., 10 minute heating.

Consider two compounds from patent publication US4225586A, “Antibiotic SB-72310” (Takeda Chemical Industries, Ltd., priority 1978, dated 1980).

Where a name gives a salt, the structure may show the parent alone.

For the compound `COC1(NC(=O)C(C)NC(=O)CCC(N)C(=O)O)CN(S(=O)(=O)O)C1=O` (stereo not shown) [SB-72310 sodium salt], in the data set on mice, the Acute toxicity result is “low”. Moreover, in the data set with mice (500 mg/kg), the Deaths entry is “no deaths”. The Solubility in solvents entry in the data set “Solubility in solvents” (acetone) is reported as “Insoluble”; in “Solubility in solvents” (benzene) it was “Insoluble”; in “Solubility in solvents” (chloroform), “Insoluble”; in “Solubility in solvents” (diethyl ether), “Insoluble”; in the data set “Solubility in solvents” (dimethylsulfoxide), “soluble”; in “Solubility in solvents” (ethanol) it was “sparingly soluble”. Also, the Solubility in solvents result is “Insoluble” in the data set “Solubility in solvents” (ethyl acetate); “Insoluble” in “Solubility in solvents” (hexane); “sparingly soluble” in the data set “Solubility in solvents” (methanol); “Insoluble” in the data set “Solubility in solvents” (petroleum ether); “sparingly soluble” in the data set “Solubility in solvents” (pyridine); “readily soluble” in “Solubility in solvents” (water). Moreover, the results for the Stability entry in data set [1] (setting [14]) and in data set [1] (over pH 8.5) were “Stable” and “unstable”, respectively.

Consider `COC1(NC(=O)C(C)NC(=O)CCC(N)C(=O)O)CN(S(=O)(=O)O)C1=O` (stereo not shown) [SB-72310], for which the zone of inhibition at 10000 µg/mL in data set [2] amounted to 23 mm; in the data set on Bacillus cereus IFO 3466, 14.5 mm; in [3] it was 22 mm; in data set [4], 25 mm; in [5] it was 14.5 mm; in data set [6], 12.5 mm. For the same compound, the zone of inhibition at 10000 µg/mL in data set [7] was 19 mm; in data set [8], 18 mm; in data set [9], 12.5 mm; in [10], 18.5 mm; in the data set on Sarcina lutea IFO 3232, 23 mm; in data set [11], 17 mm. Further, the zone of inhibition at 10000 µg/mL in data set [12] is 18.5 mm. Besides, the “Activity against gram-positive bacteria” value in the data set with gram-positive bacteria is recorded as “active”. The “Activity against gram-negative bacteria” value in the data set with gram-negative bacteria is recorded as “active”. The Solubility in solvents result is given as “sparingly soluble” in “Solubility in solvents” (acetone); “Insoluble” in the data set “Solubility in solvents” (benzene); “Insoluble” in the data set “Solubility in solvents” (chloroform); “Insoluble” in the data set “Solubility in solvents” (diethyl ether); “soluble” in the data set “Solubility in solvents” (dimethylsulfoxide); “sparingly soluble” in the data set “Solubility in solvents” (ethanol). For the same compound, the Solubility in solvents result in “Solubility in solvents” (ethyl acetate) was “Insoluble”; in “Solubility in solvents” (hexane), “Insoluble”; in the data set “Solubility in solvents” (methanol), “soluble”; in the data set “Solubility in solvents” (petroleum ether), “Insoluble”; in “Solubility in solvents” (pyridine) it was “sparingly soluble”; in the data set “Solubility in solvents” (water), “readily soluble”. Moreover, the figures for the Stability result in data set [1] (setting [14]) and in data set [1] (over pH 8.5) were “Stable” and “unstable”, respectively. Also, in [13], the “Basicity, neutrality or acidity” value is reported as “Acid”.
